Like-named read-outs stand apart in the source and are kept apart here.
What was measured:
Assay type in all cases: cell-based
G2019S LRRK2 = target: T1, G2019S LRRK2 (Homo sapiens, UniProt Q5S007, G2019S); test: LRRK2 degradation assay, HiBit-tagged G2019S LRRK2 expressed from plasmid in HEK293 cells (Nano-Glo Dual-Luciferase); details: 24 hours
T1 construct: expressed in transfected cells; host or cells: HEK293 (ATCC CRL-1573), transient transfection, mammalian expression vector with ubiquitin promoter
T1 sequence (Q5S007 whole entry G2019S): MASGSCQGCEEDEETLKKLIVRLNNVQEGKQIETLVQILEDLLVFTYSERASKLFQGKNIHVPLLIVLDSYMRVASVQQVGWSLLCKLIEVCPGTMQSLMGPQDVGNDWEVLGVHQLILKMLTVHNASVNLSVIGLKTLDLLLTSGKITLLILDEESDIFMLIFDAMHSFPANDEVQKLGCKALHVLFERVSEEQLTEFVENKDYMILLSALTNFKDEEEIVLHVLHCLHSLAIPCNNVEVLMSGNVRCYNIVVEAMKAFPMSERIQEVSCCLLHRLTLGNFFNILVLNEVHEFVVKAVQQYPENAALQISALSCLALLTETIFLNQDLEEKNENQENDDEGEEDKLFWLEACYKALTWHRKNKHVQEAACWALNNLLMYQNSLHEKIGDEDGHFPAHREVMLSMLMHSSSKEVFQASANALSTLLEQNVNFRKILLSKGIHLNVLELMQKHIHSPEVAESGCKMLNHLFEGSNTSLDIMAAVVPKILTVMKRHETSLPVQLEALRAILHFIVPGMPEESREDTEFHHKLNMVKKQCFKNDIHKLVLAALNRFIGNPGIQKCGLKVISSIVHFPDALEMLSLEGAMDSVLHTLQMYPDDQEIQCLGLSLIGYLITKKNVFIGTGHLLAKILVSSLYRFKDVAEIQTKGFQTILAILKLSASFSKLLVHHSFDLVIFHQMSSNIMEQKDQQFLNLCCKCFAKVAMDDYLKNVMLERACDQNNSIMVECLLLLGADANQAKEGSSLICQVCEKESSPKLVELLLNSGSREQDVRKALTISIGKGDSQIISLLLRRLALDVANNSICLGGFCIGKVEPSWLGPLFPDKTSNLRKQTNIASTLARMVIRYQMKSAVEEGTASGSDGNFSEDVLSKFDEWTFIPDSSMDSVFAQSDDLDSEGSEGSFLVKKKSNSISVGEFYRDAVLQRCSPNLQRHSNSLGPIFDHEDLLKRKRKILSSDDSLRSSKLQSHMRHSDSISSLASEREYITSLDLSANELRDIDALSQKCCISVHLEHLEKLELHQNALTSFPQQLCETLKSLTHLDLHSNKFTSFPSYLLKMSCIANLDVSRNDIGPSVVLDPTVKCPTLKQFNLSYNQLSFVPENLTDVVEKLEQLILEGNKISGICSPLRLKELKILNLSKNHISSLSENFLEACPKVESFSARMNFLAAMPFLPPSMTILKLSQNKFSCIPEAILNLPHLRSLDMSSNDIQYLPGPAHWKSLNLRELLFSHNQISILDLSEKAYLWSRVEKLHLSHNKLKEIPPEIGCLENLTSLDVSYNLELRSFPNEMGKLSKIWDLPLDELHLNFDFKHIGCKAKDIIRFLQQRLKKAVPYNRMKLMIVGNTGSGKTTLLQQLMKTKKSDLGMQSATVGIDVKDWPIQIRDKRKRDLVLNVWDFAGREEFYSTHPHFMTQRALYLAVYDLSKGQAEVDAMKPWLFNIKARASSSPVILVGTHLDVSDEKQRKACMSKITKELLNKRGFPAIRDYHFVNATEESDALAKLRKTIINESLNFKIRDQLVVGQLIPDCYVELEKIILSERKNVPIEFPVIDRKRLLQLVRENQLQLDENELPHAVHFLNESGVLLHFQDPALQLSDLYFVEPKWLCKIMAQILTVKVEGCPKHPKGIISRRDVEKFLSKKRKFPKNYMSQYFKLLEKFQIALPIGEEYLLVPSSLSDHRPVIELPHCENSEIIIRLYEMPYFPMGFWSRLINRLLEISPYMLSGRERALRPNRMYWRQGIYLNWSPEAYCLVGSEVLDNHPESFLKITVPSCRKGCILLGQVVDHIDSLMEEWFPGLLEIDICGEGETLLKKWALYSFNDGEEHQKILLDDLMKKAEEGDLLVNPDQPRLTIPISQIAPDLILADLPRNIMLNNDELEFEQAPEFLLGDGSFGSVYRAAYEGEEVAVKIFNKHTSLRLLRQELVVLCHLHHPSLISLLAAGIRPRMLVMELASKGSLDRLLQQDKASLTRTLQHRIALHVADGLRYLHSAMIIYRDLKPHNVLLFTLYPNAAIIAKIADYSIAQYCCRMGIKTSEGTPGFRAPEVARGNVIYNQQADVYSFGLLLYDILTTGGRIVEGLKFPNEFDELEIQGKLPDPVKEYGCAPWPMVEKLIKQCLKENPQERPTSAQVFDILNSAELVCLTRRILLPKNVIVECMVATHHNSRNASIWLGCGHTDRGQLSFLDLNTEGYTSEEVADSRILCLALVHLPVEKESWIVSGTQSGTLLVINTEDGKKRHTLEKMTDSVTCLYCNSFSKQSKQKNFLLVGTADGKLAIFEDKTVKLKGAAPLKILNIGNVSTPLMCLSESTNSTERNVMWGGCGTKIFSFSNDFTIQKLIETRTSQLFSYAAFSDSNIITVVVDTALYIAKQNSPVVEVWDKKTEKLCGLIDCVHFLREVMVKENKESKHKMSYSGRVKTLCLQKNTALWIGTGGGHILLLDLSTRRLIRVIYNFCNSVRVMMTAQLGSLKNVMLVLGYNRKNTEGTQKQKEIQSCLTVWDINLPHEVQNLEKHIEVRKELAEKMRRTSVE
Method in brief: (§1)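 Degradation read as Nano-Glo HiBiT signal over firefly luciferase (cell number/viability) after 24 h compound exposure of transiently transfected HEK293 expressing C-terminally HiBiT-tagged wildtype or G2019S LRRK2. Data as % DMSO; DC50/Dmax fitted per plate, triplicate plates repeated twice.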

[1] = target: T2, LRRK2 (endogenous, HiBit tagged) (Homo sapiens, UniProt Q5S007); test: Endogenous LRRK2 degradation assay, endogenous gene C-terminally HiBit-tagged in HEK293 cells (Nano-Glo Dual Luciferase); details: 24 hours; for Dmax: read-out: **Endogenous WT Dmax (%); for DC50: read-out: *Endogenous WT DC50
T2 construct: endogenous in cells; host or cells: HEK293 cells with HiBit knock-in at the endogenous LRRK2 locus, stably expressing firefly luciferase
T2 sequence (Q5S007 whole entry): as the sequence (Q5S007 whole entry G2019S) above, with S2019G counted along it
Method in brief: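 LRRK2-HiBit quantified via Nano-Glo Dual Luciferase in HEK293 knock-in cells co-expressing firefly luciferase, after 24 h exposure to compound (1 μM final top, 1:3, 11 points). Values normalised to DMSO median per plate and curve-fitted; Alamar Blue viability run alongside.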

wildtype LRRK2 = target: T3, wildtype LRRK2 (Homo sapiens, UniProt Q5S007); test: LRRK2 degradation assay, HiBit-tagged wildtype LRRK2 expressed from plasmid in HEK293 cells (Nano-Glo Dual-Luciferase); details: 24 hours; for Dmax: read-out: **WT Dmax (%); for DC50: read-out: *WT DC50
T3 construct: expressed in transfected cells; host or cells: HEK293 (ATCC CRL-1573), transient transfection, mammalian expression vector with ubiquitin promoter
T3 sequence (Q5S007 whole entry): as the sequence (Q5S007 whole entry G2019S) above, with S2019G counted along it
Method in brief: as §1

[2] = HiBit-tagged G2019S LRRK2 in HEK293 cells
[3] = endogenous HiBit-tagged LRRK2 in HEK293 cells
[4] = HiBit-tagged wildtype LRRK2 in HEK293 cells
[5] = HiBit-tagged G2019S LRRK2, HEK293 cells
[6] = endogenous HiBit-tagged LRRK2, HEK293 cells
[7] = HiBit-tagged wildtype LRRK2, HEK293 cells

A DC50 (G2019S LRRK2; [2]) of under 10 nM, a Dmax (G2019S LRRK2; [2]) of 50 to 70% and a Dmax [1, 3] of at least 70% were found for `CC1(Oc2ccc3[nH]nc(-c4ccnc(N5CC(F)(CN6CCN(CC7CCN(c8ccc9c(c8)C(=O)N(C8CCC(=O)NC8=O)C9=O)CC7)CC6)C5)c4)c3c2)CC1` (stereo not drawn) [Compound 132, 2-(2,6-dioxopiperidin-3-yl)-5-[4-({4-[(3-fluoro-1-{4-[5-(1-methylcyclopropoxy)-1H-indazol-3-yl]pyridin-2-yl}azetidin-3-yl)methyl]piperazin-1-yl}methyl)piperidin-1-yl]-2,3-dihydro-1H-isoindole-1,3-dione] in this work. For the same molecule, the DC50 [1, 3] was under 10 nM, the Dmax (wildtype LRRK2; [4]) was 50 to 70% and the DC50 (wildtype LRRK2; [4]) was under 10 nM.
A DC50 (G2019S LRRK2; [2]) of under 10 nM, a Dmax (G2019S LRRK2; [2]) of 50 to 70% and a Dmax [1, 3] of at least 70% were found for `CC1(Oc2ccc3[nH]nc(-c4cc(N5CCN(C[C@@H]6CC(=O)N(CC7CCN(c8ccc9c(c8)C(=O)N(C8CCC(=O)NC8=O)C9=O)CC7)C6)CC5)ncn4)c3c2)CC1` (single isomer, unassigned) [Compound 121] in this work. For the same molecule, the DC50 [1, 3] was under 10 nM, the Dmax (wildtype LRRK2; [4]) was 50 to 70% and the DC50 (wildtype LRRK2; [4]) was under 10 nM.
A DC50 (G2019S LRRK2; [5]) of under 10 nM, a Dmax (G2019S LRRK2; [5]) of 50 to 70% and a Dmax [1, 6] of at least 70% were found for `CC1(Oc2ccc3[nH]nc(-c4ccnc(N5CC(CC6CCN(CC7CCN(c8ccc9c(c8)C(=O)N(C8CCC(=O)NC8=O)C9=O)CC7)CC6)C5)c4)c3c2)CC1` (stereo not drawn) [Compound 160, 2-(2,6-dioxo-3-piperidyl)-5-[4-[[4-[[1-[4-[5-(1-methylcyclopropoxy)-1H-indazol-3-yl]-2-pyridyl]azetidin-3-yl]methyl]-1-piperidyl]methyl]-1-piperidyl]isoindoline-1,3-dione] in this work. It also gave a DC50 [1, 6] of under 10 nM, a Dmax (wildtype LRRK2; [7]) of 50 to 70% and a DC50 (wildtype LRRK2; [7]) of under 10 nM.
A DC50 (G2019S LRRK2; [2]) of under 10 nM, a Dmax (G2019S LRRK2; [2]) of at least 70% and a Dmax [1, 3] of at least 70% were found for `CC1(Oc2ccc3n[nH]c(-c4cc(N5CC(F)(CN6CCN(CC7CCN(c8ccc9c(c8)C(=O)N(C8CCC(=O)NC8=O)C9=O)CC7)CC6)C5)ncn4)c3c2)CC1` (stereo not drawn) [Compound 131, 2-(2,6-dioxo-3-piperidyl)-5-[4-[[4-[[3-fluoro-1-[6-[5-(1-methylcyclopropoxy)-2H-indazol-3-yl]pyrimidin-4-yl]azetidin-3-yl]methyl]piperazin-1-yl]methyl]-1-piperidyl]isoindoline-1,3-dione] in this work. For the same molecule, the DC50 [1, 3] was under 10 nM, the Dmax (wildtype LRRK2; [4]) was at least 70% and the DC50 (wildtype LRRK2; [4]) was under 10 nM.
A DC50 (G2019S LRRK2; [2]) of under 10 nM, a Dmax (G2019S LRRK2; [2]) of at least 70% and a Dmax [1, 3] of at least 70% were found for `CC1(Oc2ccc3n[nH]c(-c4cc(N5CCC(CN6CCN(CC7CCN(c8ccc9c(c8)C(=O)N(C8CCC(=O)NC8=O)C9=O)CC7)CC6)CC5)ncn4)c3c2)CC1` (stereo not drawn) [Compound 68, 2-(2,6-dioxo-3-piperidyl)-5-[4-[[4-[[1-[6-[5-(1-methylcyclopropoxy)-2H-indazol-3-yl]pyrimidin-4-yl]-4-piperidyl]methyl]piperazin-1-yl]methyl]-1-piperidyl]isoindoline-1,3-dione] in this work. It also gave a DC50 [1, 3] of under 10 nM, a Dmax (wildtype LRRK2; [4]) of at least 70% and a DC50 (wildtype LRRK2; [4]) of under 10 nM.

— US12559506B2, “Indazole based compounds and associated methods of use” (Arvinas Operations, Inc., priority 2021, dated 2026)
